# Assay results from patent publication US5349127A, “Expression of herbicide metabolizing cytochromes P450” (priority 1992, dated 1994).
# Where “and” joins values, the source holds several entries; their conditions need not be identical. Identical values can stand only once.
# System: Tobacco plants (Nicotiana tabactum cv. Wisconsin 38)
# Assay: Foliar spray of 10015 on P450SU1 transformed tobacco plants (Example 21)
# Format: in vivo, Nicotiana tabacum
# Settings: individual plants
# Source text: Tobacco plants (Nicotiana tabactum cv. Wisconsin 38) transformed with plasmids pAGS112, pSU18, pSSU-SU111, pCab-SU121 or pCab-SU131 (singly) and accumulating the P450SU1 protein were identified by Western blot analysis. Seed arising from the self pollination of individual primary transformants designated AGS112, SU18.8, SU18.14, SSU-SU111.5, […], and Cab-SU131.5 gave rise to the plants described in this Example. The progeny of primary AGS112 and Cab-SU121.5 transformants segregated for single copy kanamycin resistance. In contrast, the progeny of the plants transformed with plasmids containing P450SU1 (other than Cab-SU121.5) segregated for multicopy kanamycin resistance. Thus, most plants containing the gene encoding P450SU1 and sprayed with 10015 in this Example likely contained at least one, and in many cases multiple, copies of P450SU1, while very few individuals likely carried no copies of the gene encoding P450SU1.
# Seed from transformed and nontransformed tobacco plants was germinated in a commercial potting mix Metro-Mix® 350 for 25 days. Individual plants were then transferred to 4 inch×4 inch pots containing Metro Mix® 350 and were allowed to grow in the greenhouse for an additional 22 days at which time most plants contained 4-5 fully expanded leaves. A developmentally uniform population of plants was selected from among these transplants and the individual plants were then sprayed with a carrier solution of AGWT (90.2% Acetone: 4.8% Glycerol: 4.8% Water: 0.24% Tween 20 by volume) containing sulfonylurea compound 10015 at concentrations of 1,4, or 16 grams/hectare (g/ha). The sprayed plants were returned to the greenhouse and rated for injury 22 days later.
smiles,measurement,setting,value
COc1cc(OC)nc(NC(=O)NS(=O)(=O)c2cccc3c2S(=O)(=O)N(C(C)C)C3)n1 [compound 10015],% Damage,"1 g/ha, AGS 112, 22 days",0% and 10%
same,% Damage,"1 g/ha, Cab-SU111.8, 22 days",90% and 95%
same,% Damage,"1 g/ha, Cab-SU121.5, 22 days",85% and 95% and 20%
same,% Damage,"1 g/ha, Cab-SU131.5, 22 days",50% and 95% and 90%
same,% Damage,"1 g/ha, SSU-SU111.5, 22 days",95%
same,% Damage,"1 g/ha, SU18.14, 22 days",40%
same,% Damage,"1 g/ha, SU18.8, 22 days",10%
same,% Damage,"1 g/ha, W38, 22 days after spraying",0% and 10%
same,% Damage,"4 g/ha, AGS 112, 22 days",0% and 40%
same,% Damage,"4 g/ha, Cab-SU111.8, 22 days",0% and 99%
same,% Damage,"4 g/ha, Cab-SU121.5, 22 days",90% and 100% and 95%
same,% Damage,"4 g/ha, Cab-SU131.5, 22 days",40% and 100%
same,% Damage,"4 g/ha, SSU-SU111.5, 22 days",100%
same,% Damage,"4 g/ha, SU18.14, 22 days",70%
same,% Damage,"4 g/ha, SU18.8, 22 days",60%
same,% Damage,"4 g/ha, W38, 22 days",0% and 10% and 20% and 30%
